# Test results reported in ChEMBL document CHEMBL4334438, “Discovery of novel glycogen synthase kinase-3α inhibitors: Structure-based virtual screening, preliminary SAR and biological evaluation for treatment of acute myeloid leukemia” (Eur J Med Chem, 2019).
# Experiments:
# Homo sapiens = organism: Homo sapiens; test: Inhibition of recombinant human MAPKAPK2 A399G mutant (46 to end residues) assessed as residual activity at 1 uM using KKLNRTLSVA as substrate incubated for 40 mins in presence of [gamma-33ATP by scintillation counting based radiometry assay relative to control
# [1] = biological target: Homeodomain-interacting protein kinase 3 (Homo sapiens) (UniProt Q9H422); test: Inhibition of human HIPK3 (161 to 562 residues) assessed as residual activity at 1 uM using myelin basic protein as substrate after 40 mins by [gamma-33ATP] radiometric assay relative to control
# [2] = biological target: Myosin light chain kinase 2, skeletal/cardiac muscle (Homo sapiens) (UniProt Q9H1R3); test: Inhibition of recombinant full-length human MYLK2 at 1 uM using KKLNRTLSFAEPG as substrate measured after 40 mins in presence of [gamma33P]ATP by scintillation counting method relative to control; parameters: scale not given: the % may be the effect or the level left
# [3] = biological target: Serine/threonine-protein kinase pim-1 (Homo sapiens) (UniProt P11309); test: Inhibition of recombinant full length human Pim1 assessed as residual activity at 1 uM using KKRNRTLTV as substrate measured after 40 mins in presence of [gamma33P]ATP by scintillation counting method relative to control
# [4] = biological target: Wee1-like protein kinase 2 (Homo sapiens) (UniProt P0C1S8); test: Inhibition of recombinant full-length human WEE1b at 1 uM assessed as residual activity at 1 uM using LSNLYHQGKFLQTFCGSPLYRRR as substrate measured after 120 mins in presence of [gamma33P]ATP by scintillation counting method relative to control
# [5] = biological target: Testis-specific serine/threonine-protein kinase 3 (Homo sapiens) (UniProt Q96PN8); test: Inhibition of recombinant full-length human TSSK3 at 1 uM assessed as residual activity at 1 uM using AMARAASAAALARRR as substrate measured after 40 mins in presence of [gamma33P]ATP by scintillation counting method relative to control
# [6] = tested on: Proto-oncogene tyrosine-protein kinase receptor Ret (Homo sapiens), P07949 [V804M]; test: Inhibition of recombinant human Ret V804M mutant (658 to end residues) assessed as residual activity at 1 uM using […] as substrate measured after 40 mins in presence of [gamma33P]ATP by scintillation counting method relative to control
# [7] = biological target: Tyrosine-protein kinase SYK (Homo sapiens) (UniProt P43405); test: Inhibition of recombinant full-length human Syk at 1 uM assessed as residual activity at 1 uM using poly(Glu, Tyr) 4:1 as substrate measured after 120 mins in presence of [gamma33P]ATP by scintillation counting method relative to control
# [8] = biological target: TRAF2 and NCK-interacting protein kinase (Homo sapiens) (UniProt Q9UKE5); test: Inhibition of human TNIK (1 to 367 residues) assessed as residual activity at 1 uM using RLGRDKYKTLRQIRQ as substrate measured after 40 mins in presence of [gamma33P]ATP by scintillation counting method relative to control
# [9] = biological target: Serine/threonine-protein kinase D2 (Homo sapiens) (UniProt Q9BZL6); test: Inhibition of recombinant full-length human PKD2 assessed as residual activity at 1 uM using KKLNRTLSVA as substrate measured after 40 mins in presence of [gamma33P]ATP by scintillation counting method relative to control
# [10] = biological target: Ephrin type-A receptor 1 (Homo sapiens) (UniProt P21709); test: Inhibition of recombinant human EphA1 (568 to end residues) assessed as residual activity at 1 uM using KKKSPGEYVNIEFG as substrate at 40 mins in presence of [gamma-33ATP] by scintillation counting based radiometry assay relative to control
# [11] = tested on: Tyrosine-protein kinase BTK (Homo sapiens), Q06187 [R28H]; test: Inhibition of recombinant full length human BTK R28H mutant assessed as residual activity at 1 uM using LSNLYHQGKFLQTFCGSPLYRRR as substrate incubated for 40 mins in presence of [gamma-33ATP] by scintillation counting based radiometry assay relative to control
# [12] = tested on: Tyrosine-protein kinase receptor UFO (Homo sapiens), P30530 [Q764R]; test: Inhibition of recombinant human Axl Q764R mutant (473 to end residues) assessed as residual activity at 1 uM using KKSRGDYMTMQIG as substrate incubated for 40 mins in presence of [gamma-33ATP] by scintillation counting based radiometry assay relative to control
# [13] = biological target: Serine/threonine-protein kinase 24 (Homo sapiens) (UniProt Q9Y6E0); test: Inhibition of recombinant human MST3 (1 to 304 residues) assessed as residual activity at 1 uM using ERMRPRKRQGSVRRRV as substrate measured after 40 mins in presence of [gamma33P]ATP by scintillation counting method relative to control
# [14] = biological target: G protein-coupled receptor kinase 5 (Homo sapiens) (UniProt P34947); test: Inhibition of recombinant full length human GRK5 assessed as residual activity at 1 uM using casein as substrate at 40 mins in presence of [gamma-33ATP] by scintillation counting based radiometry assay relative to control
# [15] = tested on: Glycogen synthase kinase-3 alpha (Homo sapiens), P49840 [UNDEFINED MUTATION]; test: Inhibition of human GSK-3alpha S449A mutant (2 to end residues) at 10 uM using phospho GS2 peptide as substrate after 40 mins in presence of [gamma-33ATP] by scintillation counting method relative to control
# [16] = biological target: Ephrin type-A receptor 5 (Homo sapiens) (UniProt P54756); test: Inhibition of recombinant human EphA5 (655to 956 residues) assessed as residual activity at 1 uM using poly(Glu, Tyr) 4:1 as substrate at 40 mins in presence of [gamma-33ATP] by scintillation counting based radiometry assay relative to control
# [17] = biological target: MAPK/MAK/MRK overlapping kinase (Homo sapiens) (UniProt Q9UQ07); test: Inhibition of recombinant human MOK (1 to 343 residues) assessed as residual activity at 1 uM using RSRSRSRSRSRSRSR as substrate measured after 40 mins in presence of [gamma33P]ATP by scintillation counting method relative to control
# [18] = tested on: Epidermal growth factor receptor (Homo sapiens), P00533 [L858R,T790M]; test: Inhibition of recombinant human EGFR T790M/L858R mutant (696 to end residues) assessed as residual activity at 1 uM using poly(Glu, Tyr) 4:1 as substrate at 40 mins in presence of [gamma-33ATP] by scintillation counting based radiometry assay relative to control
# [19] = tested on: Platelet-derived growth factor receptor alpha (Homo sapiens), P16234 [D842V]; test: Inhibition of human PDGFRalpha D842V mutant (550 to end residues) assessed as residual activity at 1 uM using GGMEDIYFEFMGGKKK as substrate measured after 40 mins in presence of [gamma33P]ATP by scintillation counting method relative to control
# Chain of Tyrosine-protein kinase BTK (Homo sapiens), Q06187 [R28H] (Q06187 whole entry R28H): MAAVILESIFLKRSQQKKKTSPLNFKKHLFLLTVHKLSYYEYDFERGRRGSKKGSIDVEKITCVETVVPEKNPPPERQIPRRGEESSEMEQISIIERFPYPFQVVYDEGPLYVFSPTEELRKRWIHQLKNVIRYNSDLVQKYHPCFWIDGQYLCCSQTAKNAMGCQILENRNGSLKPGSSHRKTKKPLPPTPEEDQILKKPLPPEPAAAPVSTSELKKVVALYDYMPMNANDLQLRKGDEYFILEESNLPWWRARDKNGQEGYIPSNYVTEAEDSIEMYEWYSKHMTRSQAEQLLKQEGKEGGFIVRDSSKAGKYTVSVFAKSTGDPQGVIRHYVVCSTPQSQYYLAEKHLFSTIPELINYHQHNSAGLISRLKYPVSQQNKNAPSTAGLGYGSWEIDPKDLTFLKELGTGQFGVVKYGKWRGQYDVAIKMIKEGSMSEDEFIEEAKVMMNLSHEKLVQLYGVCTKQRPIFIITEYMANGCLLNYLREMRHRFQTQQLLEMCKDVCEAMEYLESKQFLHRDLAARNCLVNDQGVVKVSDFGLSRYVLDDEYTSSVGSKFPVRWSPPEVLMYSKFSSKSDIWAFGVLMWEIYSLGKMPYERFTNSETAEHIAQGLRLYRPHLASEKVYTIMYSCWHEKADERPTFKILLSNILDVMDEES
# Chain of Serine/threonine-protein kinase pim-1 (Homo sapiens) (P11309 whole entry, looked up): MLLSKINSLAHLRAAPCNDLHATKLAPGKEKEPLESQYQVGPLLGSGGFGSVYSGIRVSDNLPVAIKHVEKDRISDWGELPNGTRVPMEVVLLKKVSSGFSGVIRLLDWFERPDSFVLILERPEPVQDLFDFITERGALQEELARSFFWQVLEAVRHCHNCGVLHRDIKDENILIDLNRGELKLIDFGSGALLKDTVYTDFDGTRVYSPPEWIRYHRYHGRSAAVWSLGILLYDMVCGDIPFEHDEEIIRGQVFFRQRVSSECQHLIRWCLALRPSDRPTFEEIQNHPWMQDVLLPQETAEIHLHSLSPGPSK
# Chain of Serine/threonine-protein kinase D2 (Homo sapiens) (Q9BZL6 whole entry): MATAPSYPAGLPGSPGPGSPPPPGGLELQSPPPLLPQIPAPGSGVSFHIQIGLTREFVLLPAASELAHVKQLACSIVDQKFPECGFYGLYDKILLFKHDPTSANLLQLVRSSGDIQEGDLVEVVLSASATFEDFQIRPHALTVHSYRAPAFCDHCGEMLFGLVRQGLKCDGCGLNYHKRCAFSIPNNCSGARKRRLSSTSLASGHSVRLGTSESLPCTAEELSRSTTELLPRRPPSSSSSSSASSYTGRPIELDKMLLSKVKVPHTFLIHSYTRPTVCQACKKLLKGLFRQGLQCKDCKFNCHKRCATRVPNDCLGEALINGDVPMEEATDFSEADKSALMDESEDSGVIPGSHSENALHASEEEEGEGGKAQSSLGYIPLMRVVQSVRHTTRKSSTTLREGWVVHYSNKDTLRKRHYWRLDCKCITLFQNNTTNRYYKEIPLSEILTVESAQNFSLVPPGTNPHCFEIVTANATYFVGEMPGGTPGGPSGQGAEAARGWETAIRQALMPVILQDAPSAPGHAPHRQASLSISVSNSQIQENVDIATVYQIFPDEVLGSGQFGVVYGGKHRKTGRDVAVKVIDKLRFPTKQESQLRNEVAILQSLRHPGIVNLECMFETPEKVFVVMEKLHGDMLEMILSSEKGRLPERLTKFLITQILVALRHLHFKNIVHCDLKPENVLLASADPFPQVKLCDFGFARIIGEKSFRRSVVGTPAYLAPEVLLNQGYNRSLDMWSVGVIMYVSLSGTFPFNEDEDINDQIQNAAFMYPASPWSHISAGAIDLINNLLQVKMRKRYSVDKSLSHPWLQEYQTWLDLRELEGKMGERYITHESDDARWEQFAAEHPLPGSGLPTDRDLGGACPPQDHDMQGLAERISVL
# Chain of Myosin light chain kinase 2, skeletal/cardiac muscle (Homo sapiens) (Q9H1R3 whole entry): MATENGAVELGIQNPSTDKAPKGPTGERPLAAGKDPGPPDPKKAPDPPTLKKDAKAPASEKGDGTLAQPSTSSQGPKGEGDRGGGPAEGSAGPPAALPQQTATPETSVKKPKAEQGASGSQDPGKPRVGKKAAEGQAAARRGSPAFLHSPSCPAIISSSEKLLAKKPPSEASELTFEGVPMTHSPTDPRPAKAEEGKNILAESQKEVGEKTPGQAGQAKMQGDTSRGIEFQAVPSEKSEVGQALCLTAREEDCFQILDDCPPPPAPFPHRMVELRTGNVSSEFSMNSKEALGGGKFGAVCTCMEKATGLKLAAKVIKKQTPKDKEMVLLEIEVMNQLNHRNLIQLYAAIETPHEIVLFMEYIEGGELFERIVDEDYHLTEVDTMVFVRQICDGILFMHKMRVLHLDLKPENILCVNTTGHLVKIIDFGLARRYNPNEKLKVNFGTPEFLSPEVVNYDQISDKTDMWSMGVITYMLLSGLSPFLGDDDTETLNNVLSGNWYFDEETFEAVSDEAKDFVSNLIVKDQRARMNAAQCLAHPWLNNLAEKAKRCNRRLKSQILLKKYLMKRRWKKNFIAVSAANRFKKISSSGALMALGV
# Chain of Ephrin type-A receptor 1 (Homo sapiens) (P21709 whole entry): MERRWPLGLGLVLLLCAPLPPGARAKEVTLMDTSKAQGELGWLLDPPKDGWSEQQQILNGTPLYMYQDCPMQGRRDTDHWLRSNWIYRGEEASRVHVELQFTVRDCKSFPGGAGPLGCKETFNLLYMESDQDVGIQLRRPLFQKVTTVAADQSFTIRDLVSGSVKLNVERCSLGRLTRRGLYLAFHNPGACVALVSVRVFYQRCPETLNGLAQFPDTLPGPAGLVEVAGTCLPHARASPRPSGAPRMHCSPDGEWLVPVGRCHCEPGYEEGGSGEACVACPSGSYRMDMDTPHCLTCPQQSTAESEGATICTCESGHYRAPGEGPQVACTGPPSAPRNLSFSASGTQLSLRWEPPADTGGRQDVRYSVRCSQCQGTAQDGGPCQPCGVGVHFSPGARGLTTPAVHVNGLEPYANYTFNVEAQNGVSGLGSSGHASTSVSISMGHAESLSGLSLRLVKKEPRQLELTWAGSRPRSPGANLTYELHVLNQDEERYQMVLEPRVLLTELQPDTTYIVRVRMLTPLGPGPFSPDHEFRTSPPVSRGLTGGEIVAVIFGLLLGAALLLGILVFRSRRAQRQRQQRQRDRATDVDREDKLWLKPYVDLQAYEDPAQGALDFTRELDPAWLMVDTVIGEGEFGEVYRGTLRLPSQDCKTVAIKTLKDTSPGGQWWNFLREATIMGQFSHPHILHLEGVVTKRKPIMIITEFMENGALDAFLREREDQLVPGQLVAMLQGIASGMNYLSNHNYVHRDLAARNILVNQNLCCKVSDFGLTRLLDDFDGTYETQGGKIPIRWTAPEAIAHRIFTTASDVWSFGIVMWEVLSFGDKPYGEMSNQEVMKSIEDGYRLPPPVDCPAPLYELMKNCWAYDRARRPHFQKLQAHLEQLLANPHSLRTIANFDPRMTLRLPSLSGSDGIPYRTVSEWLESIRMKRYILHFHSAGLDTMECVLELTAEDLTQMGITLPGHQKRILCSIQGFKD
# Chain of Testis-specific serine/threonine-protein kinase 3 (Homo sapiens) (Q96PN8 whole entry): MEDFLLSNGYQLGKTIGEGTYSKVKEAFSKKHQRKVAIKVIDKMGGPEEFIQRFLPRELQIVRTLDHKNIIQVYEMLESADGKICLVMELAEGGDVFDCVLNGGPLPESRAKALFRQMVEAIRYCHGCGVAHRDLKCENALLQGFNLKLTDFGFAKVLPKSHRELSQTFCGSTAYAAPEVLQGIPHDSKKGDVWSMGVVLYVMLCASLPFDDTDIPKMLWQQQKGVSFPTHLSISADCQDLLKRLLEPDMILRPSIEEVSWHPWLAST
# Chain of Proto-oncogene tyrosine-protein kinase receptor Ret (Homo sapiens), P07949 [V804M] (P07949 whole entry V804M): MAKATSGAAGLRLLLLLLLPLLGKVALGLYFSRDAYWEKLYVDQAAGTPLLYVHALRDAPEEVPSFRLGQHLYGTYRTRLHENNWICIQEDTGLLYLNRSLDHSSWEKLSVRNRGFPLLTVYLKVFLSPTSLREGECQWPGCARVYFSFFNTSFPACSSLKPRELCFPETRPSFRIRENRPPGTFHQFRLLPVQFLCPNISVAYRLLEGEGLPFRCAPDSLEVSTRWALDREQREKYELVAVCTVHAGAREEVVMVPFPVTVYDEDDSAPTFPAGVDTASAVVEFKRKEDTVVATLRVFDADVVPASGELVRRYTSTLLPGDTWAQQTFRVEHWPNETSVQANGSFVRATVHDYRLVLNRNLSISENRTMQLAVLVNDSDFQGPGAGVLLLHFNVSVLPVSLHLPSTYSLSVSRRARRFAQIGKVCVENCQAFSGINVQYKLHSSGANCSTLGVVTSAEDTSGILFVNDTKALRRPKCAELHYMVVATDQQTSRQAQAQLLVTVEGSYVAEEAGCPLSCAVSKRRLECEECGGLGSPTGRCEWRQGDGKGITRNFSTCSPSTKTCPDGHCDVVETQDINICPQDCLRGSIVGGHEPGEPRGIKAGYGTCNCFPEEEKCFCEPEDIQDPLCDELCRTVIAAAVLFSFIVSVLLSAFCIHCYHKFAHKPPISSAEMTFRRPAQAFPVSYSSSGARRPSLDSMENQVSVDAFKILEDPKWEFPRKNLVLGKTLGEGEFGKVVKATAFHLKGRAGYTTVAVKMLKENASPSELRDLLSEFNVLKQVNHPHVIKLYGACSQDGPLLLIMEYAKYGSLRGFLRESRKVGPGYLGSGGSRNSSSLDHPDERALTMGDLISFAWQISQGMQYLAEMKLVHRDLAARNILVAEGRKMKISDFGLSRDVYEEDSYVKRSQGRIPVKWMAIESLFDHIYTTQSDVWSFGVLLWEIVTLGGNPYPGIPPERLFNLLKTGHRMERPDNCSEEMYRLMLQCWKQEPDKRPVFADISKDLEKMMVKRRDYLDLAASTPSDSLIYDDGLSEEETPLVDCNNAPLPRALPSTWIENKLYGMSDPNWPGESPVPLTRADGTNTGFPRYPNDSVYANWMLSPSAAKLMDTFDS
Structure (SMILES),Activity (Homo sapiens) [%],Activity [1] [%],Activity [2] [%],Activity [3] [%],Activity [4] [%],Activity [5] [%],Activity [6] [%],Activity [7] [%],Activity [8] [%],Activity [9] [%],Activity [10] [%],Activity [11] [%],Activity [12] [%],Activity [13] [%],Activity [14] [%],inhibition [15] [%],Activity [16] [%],Activity [17] [%],Activity [18] [%],Activity [19] [%]
N=C1NC(=O)/C(=C\c2ccc(-c3cccc([N+](=O)[O-])c3)o2)S1,103,2,98,9,106,106,95,93,74,103,100,94,98,105,100,96,89,101,89,97
C=CCOC(=O)c1cc(-c2ccc(/C=C3/NC(=S)NC3=O)o2)ccc1Cl,106,7,92,21,93,99,98,82,52,99,104,101,101,106,79,93,100,118,97,100
